# Key:
# HEK293T cells = experiment: Transcriptome analysis (microarray) of cells treated with Bi-PIPs; format: cell-based, human; conditions: 1 μM, 15 hours; for downregulated transcripts: criteria <−2-fold change and <0.05 P value vs vehicle; for most upregulated protein-coding gene among uniquely activated transcripts: criteria >1.5- or <−1.5-fold change, FIG. 7A; for upregulated transcripts: criteria >2-fold change and <0.05 P value vs vehicle; for change in global gene expression (in words) / transcripts commonly upregulated by both Bi-PIP1 and Bi-PIP2: microarray
# Protocol: Considering the fundamental role of P300/CBP as the transcriptional coactivator to activate gene expression, transcriptome analyses of total RNA extracted from cells (HEK293T cells) treated with Bi-PIPs were performed. […]
# HEK293T line was purchased from ATCC and maintained in DMEM (Thermo Fisher Scientific) supplemented with 10% (v/v) fetal bovine serum (FBS, Sigma Aldrich) at 37° C. with 5% CO2. For the Bi-PIP treatment, the cells were seeded on 24 well plates (2×10^5 cells/well). After one day, 1 μM of each Bi-PIP and 4 μM of Endo-Porter (10% polyethylene glycol form, Gene Tools) were added. As a vehicle, 0.1% DMSO (v/v) was used. After 15 hours of Bi-PIP treatment, RNA was extracted using FastGene™ RNA Basic Kit (Nippon Genetics) following manufacture's instruction.
# The quality of RNA was checked with Bioanalyzer (Agilent Technologies) using Agilent RNA 6000 Pico Kit (Agilent Technologies). The total RNA was processed by GeneChip WT PLUS Reagent Kit (Affymetrix) and hybridized to Human Gene 2.1 ST Array Strip (Affymetrix) using GeneChip Hybridization, Wash, and Stain Kit (Affymetrix). Fluidics and scanning were conducted in GeneAtlas System (Affymetrix) using GeneChip Hybridization, Wash, and Stain Kit (Affymetrix). Data normalization, summarization and comparison were performed using Transcriptome Analysis Console v4 (Affymetrix).
# [1] = molecular target: T1, Nuc2 (reconstituted nucleosome with five match sequences for Bi-PIP2) / recombinant human P300 (Homo sapiens, UniProt Q09472); experiment: HAT reaction-in vitro ChIP-qPCR with recombinant P300, acetylation of Nuc2; format: biochemical; conditions: 100 nM compound, mixture of Nuc1 and Nuc2
# T1 construct: 10 nM recombinant human P300 (amino acids 965-1810); purchased BPS Bioscience 50071
# T1 sequence (Q09472 965-1810): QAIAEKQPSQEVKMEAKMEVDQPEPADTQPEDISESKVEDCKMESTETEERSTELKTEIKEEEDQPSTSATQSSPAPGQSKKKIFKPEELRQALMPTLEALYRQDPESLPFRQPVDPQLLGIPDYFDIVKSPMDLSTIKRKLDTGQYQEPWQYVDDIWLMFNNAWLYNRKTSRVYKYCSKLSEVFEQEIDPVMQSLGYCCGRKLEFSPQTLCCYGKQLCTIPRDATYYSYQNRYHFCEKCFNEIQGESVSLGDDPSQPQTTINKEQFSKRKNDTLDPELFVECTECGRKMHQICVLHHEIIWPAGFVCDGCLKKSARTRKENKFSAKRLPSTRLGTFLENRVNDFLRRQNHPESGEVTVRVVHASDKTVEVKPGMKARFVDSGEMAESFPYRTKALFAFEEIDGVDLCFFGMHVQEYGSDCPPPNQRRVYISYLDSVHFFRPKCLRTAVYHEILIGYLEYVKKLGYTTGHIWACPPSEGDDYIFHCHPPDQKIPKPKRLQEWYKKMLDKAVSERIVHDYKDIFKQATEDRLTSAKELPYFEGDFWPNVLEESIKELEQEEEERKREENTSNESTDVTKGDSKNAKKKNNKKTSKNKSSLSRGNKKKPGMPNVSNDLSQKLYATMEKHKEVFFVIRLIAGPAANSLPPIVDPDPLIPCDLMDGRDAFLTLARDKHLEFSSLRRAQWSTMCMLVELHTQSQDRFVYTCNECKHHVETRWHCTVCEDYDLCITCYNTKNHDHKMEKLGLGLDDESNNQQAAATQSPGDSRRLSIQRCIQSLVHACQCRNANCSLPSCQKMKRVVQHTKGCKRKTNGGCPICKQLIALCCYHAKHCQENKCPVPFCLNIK
# Text: (§1) To test sequence-selective histone acetylation by Bi-PIP, a biochemical assay (HAT reaction-in vitro ChIP-qPCR) was established by combining HAT reaction followed by immunoprecipitation utilizing reconstituted nucleosomes as reported previously (Nguyen et al., Nat. Methods 2014, 11, 834-40) and quantitative polymerase chain reaction (qPCR) (FIGS. 2A to 2C).
# (§2) Mononucleosomes were reconstituted utilizing a salt-dialysis method from a histone octamer and DNA templates that each have a Widom 601 nucleosome positioning sequence and five PIP-binding sequences: 5′-AACAGTCA-3′ for Bi-PIP1 and 5′-AGCCGCCA-3′ for Bi-PIP2 (FIG. 2A). Gel electrophoresis confirmed that the majority of DNA templates were successfully formed on the nucleosome. […]
# (§3) To a HAT reaction (15 μL), 85 μL of an AB buffer (20 mM Tris-HCl, pH 7.5, 50 mM NaCl, 5 mM EDTA) containing 1/500 volume of anti-acetylated H3 (Abcam, ab47915) was added and rotated for 1 hour at room temperature. […] The DNA solution was diluted, and amount of the precipitated each nucleosome was measured by qPCR utilizing SYBR FAST qPCR Kit (Kapa Bioscience) on LightCycler 480 (Roche Diagnostics GmbH) (FIG. 2B). Cp values were determined by the 2nd derivative maximum method and relative […] amount was calculated by the ΔΔCp method. […]
# [2] = molecular target: T2, Nuc1 (reconstituted nucleosome with five match sequences for Bi-PIP1) / recombinant human P300 (Homo sapiens, UniProt Q09472); experiment: HAT reaction-in vitro ChIP-qPCR with recombinant P300, acetylation of Nuc1; format: biochemical; conditions: mixture of Nuc1 and Nuc2
# T2 construct: 10 nM recombinant human P300 (amino acids 965-1810); purchased BPS Bioscience 50071
# T2 sequence (Q09472 965-1810): T1 sequence (Q09472 965-1810)
# Text: as §1, §2, §3
# [3] = molecular target: T3, Nuc1 histones / recombinant human P300 (Homo sapiens, UniProt Q09472); experiment: HAT reaction followed by LC-MS/MS analysis of histone peptides; format: biochemical; conditions: 2.5 μM vs 0 compound, Nuc1 500 nM, P300 50 nM, Ac-CoA 10 μM
# T3 construct: 10 nM recombinant human P300 (amino acids 965-1810); purchased BPS Bioscience 50071
# T3 sequence (Q09472 965-1810): T1 sequence (Q09472 965-1810)
# Protocol: Histone acetylation with Bi-PIP was directly confirmed by mass spectrometry analysis. After HAT reaction using Nuc1 (500 nM), B PIP1 (0 or 2.5 μM), recombinant human P300 (50 nM) and Ac-CoA (10 μM), the histones were processed through propionylation of unmodified lysine, tryptic digestion, and propionylation of terminal amine. The resulting peptides were analyzed by liquid chromatography-tandem mass spectrometry (LC-MS/MS).
# [4] = tested on: Nuc1 / HeLa nuclear extract; experiment: HAT reaction-in vitro ChIP-qPCR with HeLa nuclear extract as HAT resource, Nuc1; format: biochemical, human; conditions: 100 nM compound; HeLa nuclear extract 2% v/v; FIG. 6
Compound,downregulated transcripts (HEK293T cells),most upregulated protein-coding gene among uniquely activated transcripts (HEK293T cells),upregulated transcripts (HEK293T cells),change in global gene expression (in words) (HEK293T cells),transcripts commonly upregulated by both Bi-PIP1 and Bi-PIP2 (HEK293T cells),"acetylation of Nuc2 (anti-acetylated H3 ChIP-qPCR) ([1]; 10 nM P300 (amino acids 965-1810), FIG. 5)","acetylation of Nuc1 (anti-acetylated H3 ChIP-qPCR) ([2]; 100 nM compound, P300 0, 1, 3, 10, 30, 100 nM, FIG. 3)","acetylation of target nucleosome Nuc1 (anti-acetylated H3 ChIP-qPCR) ([2]; 100 nM each compound, 10 nM P300 (amino acids 965-1810), FIG. 4)","acetylation in the N-terminal region of histone H4 (H4K5ac, H4K8ac, H4K12ac) [3]","signal intensity of peptides containing acetyl lysine at the N-terminal tail region of H3 (H3K14ac, H3K18ac, H3K23ac, H3K27ac, H3K36ac) [3]",acetylation of Nuc1 in nuclear extract [4],"acetylation of Nuc2 (anti-acetylated H3 ChIP-qPCR) ([1]; P300 0, 1, 3, 10, 30, 100 nM, FIG. 3)"
Cc1noc(C)c1-c1ccc2c(c1)nc(CCc1ccc(OCCNC(=O)CCCCC(=O)NCCOCCOCC(=O)NCCOCCOCC(=O)Nc3cn(C)c(C(=O)Nc4cn(C)c(C(=O)NCCC(=O)Nc5cn(C)c(C(=O)Nc6cn(C)c(C(=O)Nc7cc(C(=O)NCCCC(=O)Nc8cn(C)c(C(=O)Nc9cc(C(=O)NCCC(=O)Nc%10cn(C)c(C(=O)Nc%11cc(C(=O)Nc%12cc(C(=O)NCCCN(C)C)n(C)c%12)n(C)c%11)n%10)n(C)c9)n8)n(C)c7)n6)n5)n4)n3)cc1)n2CCN1CCOCC1 [Bi-PIP2],137,IER5L,446,greater transcriptome changes,247,selective acetylation of Nuc2,,,,,,
Cc1noc(C)c1-c1ccc2c(c1)nc(CCc1ccc(OCCNC(=O)CCCCC(=O)NCCOCCOCC(=O)NCCOCCOCC(=O)Nc3cn(C)c(C(=O)Nc4cc(C(=O)Nc5cc(C(=O)NCCC(=O)Nc6cn(C)c(C(=O)Nc7cc(C(=O)NCCCC(=O)Nc8cc(C(=O)Nc9cc(C(=O)NCCC(=O)Nc%10cn(C)c(C(=O)Nc%11cc(C(=O)Nc%12cc(C(=O)NCCCN(C)C)n(C)c%12)n(C)c%11)n%10)n(C)c9)n(C)c8)n(C)c7)n6)n(C)c5)n(C)c4)n3)cc1)n2CCN1CCOCC1 [Bi-PIP1],258,NTS,473,greater transcriptome changes,247,,induced intensive acetylation,Nuc1-selective acetylation,acetylation was promoted,increase in the signal intensity,enhanced acetylation of Nuc1,acetylation was not induced

# Reference: patent publication US20190343873A1, “SEQUENCE-SELECTIVE GENE EXPRESSION REGULATORS” (KYOTO UNIVERSITY, priority 2018, published 2019)
